# Several values for one entry are separate records, joined by “and”; a condition that tells them apart may be missing. Identical values can stand only once.
# System: OVCAR-5 complex spheroids, viability
# Test: Anticancer human tumor OVCAR-5 cell line growth inhibition;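 note: spheroids exposed to agents for seven days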;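 for viability, T/C: 100% = DMSO vehicle control wells viability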
# Conditions: for viability, T/C: stronger effect = lower value
# Text: Multicellular complex tumor spheroid response to LSD1 Inhibitor Iadademstat in combination with a variety of drugs and investigational agents in selected tumor cell lines
# The current study was undertaken to assess response to LSD1 inhibitors in combination with standard-of-care drugs and investigational agents in solid tumor complex spheroid models as well as in the K-562 leukemia. Complex spheroids include a stromal component modeled by human endothelial cells (HUVEC) and fibroblasts modeled by human mesenchymal stem cells (MSCs). The concentration ranges selected for each drug and investigational agent were based upon clinically achievable concentrations if the clinical Cmax of the agent was known.
# Compounds. The drugs and investigational agents used in this study are listed on Table 1. All of the agents used, including staurosporine (NSC755774) and gemcitabine (NSC613327), were obtained from the Developmental Therapeutics Program, NCI. FDA-approved anticancer drugs are available from the NCI at http://dtp.nci.nih.gov/branches/dscb/oncology_drugset_explanation.html. Drugs and investigational agents were >95% pure by proton nuclear magnetic resonance (NMR) and liquid chromatography/mass spectrometry (LC/MS). Stock solutions were prepared at 400x in DMSO, stored at -70 degrees C, and diluted in fresh medium prior to their use. The final concentration of DMSO in cell culture wells never exceeded 0.25% (v/v). The FDA-approved anticancer drug set is available from the Developmental Therapeutics Program at https://dtp.cancer.gov/organization/dscb/obtaining/available_plates.htm. All drugs and investigational agents were tested over a range starting from a high concentration at or near the clinical Cmax and decreasing in half-log increments. If the clinical Cmax for an agent had not been determined, the highest concentration tested was 10 microM.
# Cell Lines. The patient-derived cancer cell (PDC) lines: 292921-168-R-J2-PDC, K24384-001-R-PDC, and 521955-158-R2-J5-PDC pancreatic carcinomas, 556581-035-R-J1 ovarian carcinoma, 324938-238-R-J1-PDC, 855422-203-R-J1-PDC and 883617-216-R-J1-PDC urothelial bladder carcinomas, 743489-274-T-PDC renal cell carcinoma, 138582-R-J1 Merkel cell tumor, K60290-347-R-J1 and K57222-313-R-J1-PDC glioblastomas, 653999-131-R-J2-PDC, LG0703-F948-PDC, and 349418-098-R-PDC non-small cell lung carcinomas, 885512-296-R-J2-PDC, 171881-019-R-J1-PDC breast carcinomas and 186277-243-T-J2-PDC and 233499-124-R-J2-PDC colon carcinomas were obtained from the NCI Patient-Derived Models Repository (PDMR, https://pdmr.cancer.gov). The established cell lines NCI/ADR-RES (RRID:CVCL_14520 and OVCAR-5 (RRID:CVCL_1628) ovarian carcinomas, 786-O (RRID:CVCL_1051) and A498 […] renal cell carcinoma, NCI-H211 (ATCC, cat. CRL-5824; RRID:CVCL_1529), NCI-H196 (ATCC, cat. CRL-5823, RRID:CVCL_1509), SW 1271 (ATCC, cat. CRL-2177, RRID:CVCL_1716) and NCI-H1876 (ATCC, cat. CRL-5902, RRID:CVCL_1503) small cell lung carcinomas, MDA-MB-231 (RRID:CVCL_0062) and MDA-MB-468 (RRID:CVCL_0419)breast carcinomas (10-12). Pooled donor human umbilical vein endothelial cells (HUVEC, Lonza, cat. CC-2519) and human mesenchymal stem cells (hMSC, Lonza, cat. PT-2501) were purchased from Lonza (Walkersville, MD).
# Cell Culture. All cells were maintained in an incubator at 37 degrees C and 5% CO2 with 95% humidity. The PDC lines were cultured according to standard operating procedures established by the NCI PDMR (https://pdmr.cancer.gov). Briefly all PDCs were thawed and cultured in Matrigel-coated flasks prepared with a working solution of 1X Ham's F-12 nutrient mix, without supplementation (Invitrogen, Waltham, MA, cat. 11765054), 100 U/mL penicillin-streptomycin (Invitrogen, cat. 15140122), and 2.5% Matrigel (Corning Inc., Corning, NY, cat. 354248) for the first three passages. […]
# [1] = curve of first compound, second compound 0.1 µM
# [2] = curve of first compound, second compound 0.316 µM
# [3] = curve of first compound, second compound 1 µM
# [4] = curve of first compound, second compound 3.16 µM
# [5] = curve of first compound, second compound 10 µM
# [6] = second compound 0.1 µM, first compound 0.00316 µM
# [7] = second compound 0.1 µM, first compound 0.01 µM
# [8] = second compound 0.1 µM, first compound 0.0316 µM
# [9] = second compound 0.1 µM, first compound 0.1 µM
# [10] = second compound 0.316 µM, first compound 0.00316 µM
# [11] = second compound 0.316 µM, first compound 0.01 µM
# [12] = second compound 0.316 µM, first compound 0.0316 µM
# [13] = second compound 0.316 µM, first compound 0.1 µM
# [14] = second compound 1 µM, first compound 0.00316 µM
# [15] = second compound 1 µM, first compound 0.01 µM
# [16] = second compound 1 µM, first compound 0.0316 µM
# [17] = second compound 1 µM, first compound 0.1 µM
# [18] = second compound 3.16 µM, first compound 0.00316 µM
# [19] = second compound 3.16 µM, first compound 0.01 µM
# [20] = second compound 3.16 µM, first compound 0.0316 µM
# [21] = second compound 3.16 µM, first compound 0.1 µM
# [22] = second compound 10 µM, first compound 0.00316 µM
# [23] = second compound 10 µM, first compound 0.01 µM
# [24] = second compound 10 µM, first compound 0.0316 µM
# [25] = second compound 10 µM, first compound 0.1 µM
# [26] = second compound 0.1 µM, first compound 0.000316 µM
# [27] = second compound 0.1 µM, first compound 0.001 µM
# [28] = second compound 0.316 µM, first compound 0.000316 µM
# [29] = second compound 0.316 µM, first compound 0.001 µM
# [30] = second compound 1 µM, first compound 0.000316 µM
# [31] = second compound 1 µM, first compound 0.001 µM
# [32] = second compound 3.16 µM, first compound 0.000316 µM
# [33] = second compound 3.16 µM, first compound 0.001 µM
# [34] = second compound 10 µM, first compound 0.000316 µM
# [35] = second compound 10 µM, first compound 0.001 µM
SMILES,IC50 [1],IC50 [2],IC50 [3],IC50 [4],IC50 [5],"viability, T/C [6]","viability, T/C [7]","viability, T/C [8]","viability, T/C [9]","viability, T/C [10]","viability, T/C [11]","viability, T/C [12]","viability, T/C [13]","viability, T/C [14]","viability, T/C [15]","viability, T/C [16]","viability, T/C [17]","viability, T/C [18]","viability, T/C [19]","viability, T/C [20]",other results
Nc1ncn(C2CC(O)C(CO)O2)c(=O)n1 (configuration not stated) + NC1CCC(NC2CC2c2ccccc2)CC1,> 1000 nM,> 1000 nM,> 1000 nM,> 1000 nM,> 1000 nM,103%,104%,94.4%,89.5%,97.7%,104%,81.4%,79.6%,91.8%,82.3%,79.6%,81.3%,91.6%,93.3%,78.2%,"viability, T/C (second compound 0.1 µM, first compound 0.316 µM): 75.5%; viability, T/C (second compound 0.1 µM, first compound 1 µM): 79%; viability, T/C (second compound 0.316 µM, first compound 0.316 µM): 78.4%; viability, T/C (second compound 0.316 µM, first compound 1 µM): 78.4%; viability, T/C (second compound 1 µM, first compound 0.316 µM): 76%; viability, T/C (second compound 1 µM, first compound 1 µM): 73.7%; viability, T/C [21]: 76.8%; viability, T/C (second compound 3.16 µM, first compound 0.316 µM): 70.5%; viability, T/C (second compound 3.16 µM, first compound 1 µM): 66.6%; viability, T/C [22]: 83.7%; viability, T/C [23]: 83.1%; viability, T/C [24]: 79.1%; viability, T/C [25]: 67.1%; viability, T/C (second compound 10 µM, first compound 0.316 µM): 61.9%; viability, T/C (second compound 10 µM, first compound 1 µM): 66%"
CC(C)CC(NC(=O)CNC(=O)c1cc(Cl)ccc1Cl)B1OC(=O)CC(CC(=O)O)(C(=O)O)O1 (configuration not stated) + NC1CC1c1ccc(-c2cccc(O)c2)cc1,> 100 nM,> 100 nM,> 100 nM,> 100 nM,99.8 nM,89.8%,72.1%,66.2%,55%,80.4%,73.3%,74.4%,57.5%,79.3%,71.1%,66.8%,53.6%,83.9%,65.8%,64.3%,"viability, T/C [26]: 92.4%; viability, T/C [27]: 87%; viability, T/C [28]: 96.6%; viability, T/C [29]: 92.1%; viability, T/C [30]: 98%; viability, T/C [31]: 91.6%; viability, T/C [32]: 79.6%; viability, T/C [33]: 78.7%; viability, T/C [21]: 51.8%; viability, T/C [34]: 97.1%; viability, T/C [35]: 93.3%; viability, T/C [22]: 71.4%; viability, T/C [23]: 70.3%; viability, T/C [24]: 64.8%; viability, T/C [25]: 47%"
Cn1ncnc1C1c2n[nH]c(=O)c3cc(F)cc(c23)NC1c1ccc(F)cc1 (configuration not stated),–,–,–,–,–,–,–,–,–,–,–,–,–,–,–,–,–,–,–,–,"viability, T/C (compound 0.000316 µM): 96.3% and 102%; viability, T/C (compound 0.001 µM): 91.2% and 102%; viability, T/C (compound 0.00316 µM): 89% and 98.7%; viability, T/C (compound 0.01 µM): 93.4% and 95.9%; viability, T/C (compound 0.0316 µM): 90.2% and 86%; viability, T/C (compound 0.1 µM): 99.8% and 93.8%; IC50 (curve of compound): > 100 nM"
CC(C)CC(NC(=O)CNC(=O)c1cc(Cl)ccc1Cl)B1OC(=O)CC(CC(=O)O)(C(=O)O)O1 (configuration not stated) + NC1CCC(NC2CC2c2ccccc2)CC1,> 100 nM,> 100 nM,> 100 nM,> 100 nM,> 100 nM,108%,91.5%,89.7%,71.8%,113%,83.6%,85.2%,70.8%,110%,95.1%,80.7%,71.4%,95.6%,76.5%,77.7%,"viability, T/C [26]: 96.8%; viability, T/C [27]: 95%; viability, T/C [28]: 97.5%; viability, T/C [29]: 112%; viability, T/C [30]: 103%; viability, T/C [31]: 93.7%; viability, T/C [32]: 101%; viability, T/C [33]: 103%; viability, T/C [21]: 64.6%; viability, T/C [34]: 98.1%; viability, T/C [35]: 79.8%; viability, T/C [22]: 89.1%; viability, T/C [23]: 86.7%; viability, T/C [24]: 76.5%; viability, T/C [25]: 56.6%"

# Reference: PubChem BioAssay AID1918956 (Molecular Pharmacology Branch, DTP, NCI, 2023)
